Source: the supplement of paper PMC11208160

Assay: recombinant barcode read abundance after kanamycin selection (control-corrected) (log10(CPM+1)); higher = more efficient recombination; sequences stand for … in AGTGCAGAGAAAATCGGCCAGTTTTCTCTGCCTGCAGTCCGCATGCCGT…AGATTTATGCAGCGGACTGCCTTTCTCCCAAAGTGATAAACCGGACAGTATCATGGACCGGTTTTCCCGGTAATCCGTATTTGCAAGGTTGGTTTCACT; site = the 11-nt target
Method: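 Pooled E. coli target-specificity screen for the IS621 bridge recombinase. Each library plasmid pairs an 11-nt target (CT core) with a bridge RNA whose target-binding loop (9-nt LTG + 4-nt RTG) is reprogrammed; the rest of the 177-nt WT IS621 bridge RNA scaffold is fixed. The plasmid is co-electroporated with a WT donor plasmid; recombinase is induced with 0.1 mM IPTG and recombinants are selected on kanamycin. Recombinant barcodes are sequenced, converted to CPM, averaged over two biological replicates and corrected by the unselected control CPM. Molecule = full bridge RNA written as DNA: LTG = specificity nt 1-9, RTG = reverse complement of specificity nt 8-11, in the WT scaffold.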
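Further: IS621 recombinase and bridge RNA in Escherichia coli cells.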

| Sequence | recombinant barcode read abundance (log10) |
| --- | --- |
| AATTCACCTTGGGTTCTAACCTGTTGCCT (site AATTCACCTAG) | 0.454 |
| AATTCACCTTGGGTTCTAACCTGTTGCCT (site CATTCACCTAG) | 0.0863 |
| AATTCACCTTGGGTTCTAACCTGTTGCCT (site GATTCACCTAG) | 0.0262 |
| AATTCACCTTGGGTTCTAACCTGTTGCCT (site TATTCACCTAG) | 0.129 |
| AATTCAGCTTGGGTTCTAACCTGTTGCCT (site AATTAAGCTAG) | 0.0713 |
| AATTCAGCTTGGGTTCTAACCTGTTGCCT (site AATTCAGCTAG) | 0.26 |
| AATTCAGCTTGGGTTCTAACCTGTTGCCT (site AATTGAGCTAG) | 0.164 |
| AATTCAGCTTGGGTTCTAACCTGTTGCCT (site AATTTAGCTAG) | 0.0408 |
| AATTCGGCTTGGGTTCTAACCTGTTGCCT (site AATTCGGCTAG) | 0.305 |
| AATTCGGCTTGGGTTCTAACCTGTTGCCT (site ACTGCGGCTAG) | 0.407 |
| AATTGTCCTTGGGTTCTAACCTGTTGCAT (site AATTGTCCTAA) | 0.296 |
| AATTGTCCTTGGGTTCTAACCTGTTGCAT (site AATTGTCCTAC) | 0.102 |
| AATTGTCCTTGGGTTCTAACCTGTTGCAT (site AATTGTCCTAG) | 0.0432 |
| AATTGTCCTTGGGTTCTAACCTGTTGCAT (site AATTGTCCTAT) | 0.249 |
| AATTGTCCTTGGGTTCTAACCTGTTGCCT (site AATTGTCCTAA) | 0.411 |
| AATTGTCCTTGGGTTCTAACCTGTTGCCT (site AATTGTCCTAC) | 0.0374 |
| AATTGTCCTTGGGTTCTAACCTGTTGCCT (site AATTGTCCTAG) | 0.407 |
| AATTGTCCTTGGGTTCTAACCTGTTGCCT (site AATTGTCCTAT) | 0.0177 |
| AATTTGACTTGGGTTCTAACCTGTTGCCT (site AAATTGACTAG) | 0.218 |
| AATTTGACTTGGGTTCTAACCTGTTGCCT (site AACTTGACTAG) | 0.0252 |
| AATTTGACTTGGGTTCTAACCTGTTGCCT (site AAGTTGACTAG) | 0.115 |

| Sequence | recombinant barcode read abundance (log10) |
| --- | --- |
| AATTTGACTTGGGTTCTAACCTGTTGCCT (site AATTTGACTAG) | 0.576 |
| ACAAGAGCTTGGGTTCTAACCTGTTGCCT (site ACAAGAGCTAG) | 1.07 |
| ACAAGAGCTTGGGTTCTAACCTGTTGCCT (site ACCAGAGCTAG) | 0.266 |
| ACAAGAGCTTGGGTTCTAACCTGTTGCCT (site ACGAGAGCTAG) | 0.0837 |
| ACAAGAGCTTGGGTTCTAACCTGTTGCCT (site ACTAGAGCTAG) | 0.133 |
| ACAATACCTTGGGTTCTAACCTGTTGCCG (site ACAATACCTCG) | 0.408 |
| ACAATACCTTGGGTTCTAACCTGTTGCCG (site ACAATAGCTAG) | 0.51 |
| ACAATCTCTTGGGTTCTAACCTGTTGCTC (site ACAATCTCTGA) | 1.22 |
| ACAATCTCTTGGGTTCTAACCTGTTGCTC (site CACCAGACTTG) | 0.066 |
| ACACACCCTTGGGTTCTAACCTGTTGCGG (site ACACACCCTCC) | 2.53 |
| ACACACCCTTGGGTTCTAACCTGTTGCGG (site ACGCACGCTCC) | 0.0353 |
| ACACGAGCTTGGGTTCTAACCTGTTGCAG (site ACACGAGCTCT) | 1.3 |
| ACACGAGCTTGGGTTCTAACCTGTTGCAG (site TGCGATACTAA) | 0.326 |
| ACACGGACTTGGGTTCTAACCTGTTGCTA (site ACACGGACTTA) | 1.38 |
| ACACGGACTTGGGTTCTAACCTGTTGCTA (site GTGGTACCTAT) | 0.0282 |
| ACACTCCCTTGGGTTCTAACCTGTTGCCT (site AAGCTCCCTAG) | 0.415 |
| ACACTCCCTTGGGTTCTAACCTGTTGCCT (site ACACTCCCTAG) | 0.294 |
| ACACTCCCTTGGGTTCTAACCTGTTGCTG (site ACACACTCTCA) | 0.104 |
| ACACTCCCTTGGGTTCTAACCTGTTGCTG (site ACACTCCCTCA) | 2.14 |
| ACACTGTCTTGGGTTCTAACCTGTTGCGG (site ACAATGTCTCC) | 0.0253 |
